Source: patent US20210371351A1, “MIXTURES COMPRISING AT LEAST TWO DIFFERENT NITRIFICATION INHIBITORS SELECTED FROM 2-(3,4-DIMETHYL-1H-PYRAZOL-1-YL)SUCCINIC ACID (DMPSA), 3,4-DIMETHYL PYRAZOLIUM GLYCOLATE (DMPG) AND OTHER COMPOUNDS” (BASF SE, priority 2017, published 2021)

Test system: nitrification
Experiment: Example 5: soil incubation in bottles with ammonium sulfate, DMPSA, DCD or mixtures, 5 to 15° C., 0 up to 56 days; recovery NH4 (RE/RC), net recovery NH4 (NE/NC), inhibition of NO3 formation (IE/IC, Böhland; Colby)
Design: unit not given here
Procedure: 100 g soil is filled into 500 ml plastic bottles (e.g. soil sampled from the field) and is moistened to 50% water holding capacity. The soil is incubated at 20° C. for two weeks to activate the microbial biomass. 1 ml test solution, containing the compositions and mixtures of the invention in the appropriate concentration, or DMSO and 5 to 10 mg nitrogen in the form of ammoniumsulfate-N is added to the soil and everything mixed well. Bottles are capped but loosely to allow air exchange. The bottles are then incubated at 5 to 15° C. for 0 up to 56 days.
For analysis, 300 ml of a 1% K2SO4-solution is added to the bottle containing the soil and shaken for 2 hrs in a horizontal shaker at 150 rpm. Then the whole solution is filtered through a Macherey-Nagel Filter MN 807′/. Ammonium and nitrate content is then analyzed in the filtrate in an autoanalyzer at 550 nm (Merck, AA11).
The Böhland equation is described in Böhland, H., et al. (1973) “Mittel zur Hemmung bzw. Regelung der Nitrifikation von Ammoniumstickstoff in Kulturböden”. DDR-Wirtschaftspatent (Economic patent of the German Democratic Republic) C 05c 169 727. Cited by: Peschke, H. (1985) “Zur Bewertung der inhibierenden Wirkung von Nitrifiziden im Boden”, Zbl. Mikrobiol. 140, pp. 583-588.

For “2-(3,4-dimethyl-1H-pyrazol-1-yl)succinic acid and/or 2-(4,5-dimethyl-1H-pyrazol-1-yl)succinic acid [DMPSA]”, the “IE (inhibition of NO3 formation, Böhland)” value (IT10° C., DAT28, % a.i. DMPSA 0.30, DCD 0.05) was 51, the “IE (inhibition of NO3 formation, Böhland)” value (IT10° C., DAT28, % a.i. DMPSA 0.50, DCD 0.08) was 46 and the “IE inhibition of NO3 formation” value (IT10° C., DAT28, % a.i.: DMPSA 0.50, DCD 0.0125, DMPSA + DCD 0.50 + 0.0125 (40:1)) was 62. For the same substance, the “IE inhibition of NO3 formation” value (IT10° C., DAT28, % a.i.: DMPSA 0.50, DCD 0.0143, DMPSA + DCD 0.50 + 0.0143 (35:1)) was 62, the “IE inhibition of NO3 formation” value (IT10° C., DAT28, % a.i.: DMPSA 0.50, DCD 0.0167, DMPSA + DCD 0.50 + 0.0167 (30:1)) was 62 and the “IE inhibition of NO3 formation” value (IT10° C., DAT30, % a.i.: DMPSA 0.5, DCD 1, DMPSA + DCD 0.5 + 1 (1:2)) was 79. For the same substance, the “IE inhibition of NO3 formation” value (IT10° C., DAT30, % a.i.: DMPSA 0.5, DCD 3, DMPSA + DCD 0.5 + 3 (1:6)) was 79, the “IE (inhibition of NO3 formation, Böhland)” value (IT10° C., DAT42, % a.i. DMPSA 0.25, DCD 1) was 66 and the “IE (inhibition of NO3 formation, Böhland)” value (IT10° C., DAT42, % a.i. DMPSA 0.25, DCD 3) was 66. For the same substance, the “IE (inhibition of NO3 formation, Böhland)” value (IT10° C., DAT42, % a.i. DMPSA 0.30, DCD 0.05) was 46, the “IE (inhibition of NO3 formation, Böhland)” value (IT10° C., DAT42, % a.i. DMPSA 0.50, DCD 0.08) was 52 and the “IE (inhibition of NO3 formation, Böhland)” value (IT10° C., DAT56, % a.i. DMPSA 0.25, DCD 1) was 65. For the same substance, the “IE (inhibition of NO3 formation, Böhland)” value (IT10° C., DAT56, % a.i. DMPSA 0.25, DCD 3) was 65, the “IE (inhibition of NO3 formation, Böhland)” value (IT10° C., DAT56, % a.i. DMPSA 0.30, DCD 0.05) was 47 and the “IE (inhibition of NO3 formation, Böhland)” value (IT10° C., DAT56, % a.i. DMPSA 0.50, DCD 0.08) was 47. The “IE inhibition of NO3 formation” value (IT15° C., DAT10, % a.i.: DMPSA 0.5, DCD 1, DMPSA + DCD 0.5 + 1 (1:2)) was 50, the “IE inhibition of NO3 formation” value (IT15° C., DAT10, % a.i.: DMPSA 0.5, DCD 3, DMPSA + DCD 0.5 + 3 (1:6)) was 50 and the “IE inhibition of NO3 formation” value (IT15° C., DAT20, % a.i.: DMPSA 0.5, DCD 1, DMPSA + DCD 0.5 + 1 (1:2)) was 74. The “IE inhibition of NO3 formation” value (IT15° C., DAT20, % a.i.: DMPSA 0.5, DCD 3, DMPSA + DCD 0.5 + 3 (1:6)) was 74, the “IE (inhibition of NO3 formation, Böhland)” value (IT15° C., DAT28, % a.i. DMPSA 0.25, DCD 1) was 70 and the “IE (inhibition of NO3 formation, Böhland)” value (IT15° C., DAT28, % a.i. DMPSA 0.25, DCD 3) was 70. For the same substance, the “IE inhibition of NO3 formation” value (IT15° C., DAT28, % a.i.: DMPSA 0.30, DCD 0.05, DMPSA + DCD 0.30 + 0.05 (6:1)) was 39, the “IE inhibition of NO3 formation” value (IT15° C., DAT28, % a.i.: DMPSA 0.50, DCD 0.0125, DMPSA + DCD 0.50 + 0.0125 (40:1)) was 44 and the “IE inhibition of NO3 formation” value (IT15° C., DAT28, % a.i.: DMPSA 0.50, DCD 0.0143, DMPSA + DCD 0.50 + 0.0143 (35:1)) was 44. For the same substance, the “IE inhibition of NO3 formation” value (IT15° C., DAT28, % a.i.: DMPSA 0.50, DCD 0.0167, DMPSA + DCD 0.50 + 0.0167 (30:1)) was 44, the “IE inhibition of NO3 formation” value (IT15° C., DAT28, % a.i.: DMPSA 0.50, DCD 0.08, DMPSA + DCD 0.50 + 0.08 (6.25:1)) was 40 and the “IE inhibition of NO3 formation” value (IT15° C., DAT30, % a.i.: DMPSA 0.5, DCD 1, DMPSA + DCD 0.5 + 1 (1:2)) was 74. The “IE inhibition of NO3 formation” value (IT15° C., DAT30, % a.i.: DMPSA 0.5, DCD 3, DMPSA + DCD 0.5 + 3 (1:6)) was 74, the “IE (inhibition of NO3 formation, Böhland)” value (IT15° C., DAT42, % a.i. DMPSA 0.25, DCD 1) was 55 and the “IE (inhibition of NO3 formation, Böhland)” value (IT15° C., DAT42, % a.i. DMPSA 0.25, DCD 3) was 55. For the same substance, the “IE inhibition of NO3 formation” value (IT15° C., DAT42, % a.i.: DMPSA 0.30, DCD 0.05, DMPSA + DCD 0.30 + 0.05 (6:1)) was 29, the “IE inhibition of NO3 formation” value (IT15° C., DAT42, % a.i.: DMPSA 0.50, DCD 0.08, DMPSA + DCD 0.50 + 0.08 (6.25:1)) was 44 and the “IE (inhibition of NO3 formation, Böhland)” value (IT15° C., DAT56, % a.i. DMPSA 0.25, DCD 1) was 35. The “IE (inhibition of NO3 formation, Böhland)” value (IT15° C., DAT56, % a.i. DMPSA 0.25, DCD 3) was 35, the “IE inhibition of NO3 formation” value (IT15° C., DAT56, % a.i.: DMPSA 0.30, DCD 0.05, DMPSA + DCD 0.30 + 0.05 (6:1)) was 27 and the “IE inhibition of NO3 formation” value (IT15° C., DAT56, % a.i.: DMPSA 0.50, DCD 0.08, DMPSA + DCD 0.50 + 0.08 (6.25:1)) was 27.
